{"source": "patent US10328092B2", "about": "“Methods and compositions for treatment of drug addiction” (The Royal Institution for the Advancement of Learning / …, priority 2015, dated 2019)", "key": {"[1]": {"tested_on": "D1-MSNs in the NAc core", "assay": "AMPA/NMDA ratio on D1-MSNs after in vivo treatment", "parameters": "species or system mouse", "conditions": "L741,626 i.p. 3 mg/kg co-administered with daily cocaine over 5 days", "procedure": "(§1) Repeated non-contingent administration of cocaine results in lower AMPA/NMDA ratios of excitatory inputs onto the NAc specifically on the D1-MSN subtype (Kim et al., 2011; Pascoli et al., 2012). To test whether the decrease in AMPA/NMDA ratios after repeated drug administration is due to the increase in TNFα expression, the AMPA/NMDA ratio was evaluated on D1 and D2 MSNs in the NAc core following cocaine or saline administration in WT and TNFα^−/− mice. […] This is consistent with the exocytosis of AMPARs observed with direct stimulation of D1Rs on MSNs (Mangiavacchi and Wolf, 2004). […] To test the hypothesis that potentiated D1-MSNs are more sensitive to TNFα, TNFα mice were treated with a single injection of cocaine and the effect of a low level of TNFα (10 ng/ml) on AMPA/NMDA ratios was evaluated. […] This treatment had no effect on D2-MSNs (FIG. 9B). To test whether cocaine-induced TNFα signaling would occlude further TNFα synaptic depression, wildtype animals were treated with cocaine for 5 days, and then treated striatel slices ex-vivo with TNFα (100 ng/ml). The AMPA/NMDA ratio on D1-MSNs (already reduced compared to saline treated animals; FIG. 5E) was not further reduced by treatment with TNFα (FIG. 5G).\nBecause depotentiation of MSNs reduced cocaine-induced behavioural sensitization (Pascoli et al., 2012), it was tested whether re-activation of microglia would depress NAc synapses and suppress sensitization. To do this, monophosphoryl lipid A (MPLA), a detoxified variant of LPS, was used (Casella and Mitchell, 2008). MPLA acts as a weak TLR4 agonist that is at least 100-fold less pyrogenic than LPS (Cluff, 2010) and is used in humans as an adjuvant for several vaccine formulations. […] It was verified that MPLA activates microglia in the striatum, by injecting 10 μg MPLA IP after 10 days withdrawal from cocaine. […] This is consistent with previous observations that MPLA acts as a microglia modulator (Michaud et al., 2013). […] It was next tested if MPLA treatment would depress synaptic strength in the NAc core. After 10 days of withdrawal, animals were injected with MPLA and evaluated 24 hours later for AMPA/NMDA ratios on D1-MSNs.\n240 μm thick coronal slices containing the nucleus accumbens were prepared from brains of 8-9 week-old mice (with fluorescent D1-MSNs). After a 1 h recovery period, slices were placed in a submersion-type recording chamber and perfused (1.5-2 ml/min) at 30° C. with a bicarbonate-buffered artificial CSF saturated with 95% O2/5% CO2 and containing (in mM): 119 NaCl, 2.5 KCl, 1 NaH2PO4, 1.3 MgCl2, 2.5 CaCl2, 26.2 NaHCO3, 11 glucose, and 0.05 picrotoxin. Whole-cell voltage-clamp recordings from medium spiny neurons in the nucleus accumbens core were obtained under visual control using infrared-differential interference contrast microscopy. Whole-cell electrodes (2-4 MΩ) were filled with internal solution containing the following (in mM): 120 CsMeSO3, 15 CsCl, 8 NaCl, 0.2 EGTA, 10 HEPES, 2 Mg-ATP, 0.3 Na-GTP, 10 tetraethylammonium, and 5 QX-314 [5-N-(2,6-dimethylphenylcarbamoylmethyl)triethylammonium bromide] (308-310 mOsm). pH was adjusted to 7.3 with CsOH. Cells with series resistance above 25 MΩ or a 20% change over time were excluded. Synaptic currents were evoked using stainless-steel bipolar stimulating electrodes placed 100-150 μm rostral to the recorded neurons. EPSCs were acquired with an Axopatch 200B (Molecular Devices), filtered at 2 kHz, and digitized at 10 kHz. Acquisition and analysis was performed using pCLAMP 10.2 (Molecular Devices). To calculate AMPA/NMDA ratios, evoked synaptic responses were collected at −70 mV to measure AMPAR-mediated EPSCs and at +40 mV to measure NMDAR-mediated EPSCs. Typically, 20 responses were averaged to generate an average response. The peak AMPA response was used to calculate the AMPAR component and the amplitude at 40 ms post the AMPAR peak response was used to calculate the slower NMDA component at +40 mV to calculate the AMPA/NMDA ratio."}, "[2]": {"tested_on": "TNFα", "assay": "TNFα mRNA / protein in ventral striatum (NAc) after in vivo treatment", "parameters": "species or system mouse", "conditions": "L741,626 i.p. 3 mg/kg 15 min before daily cocaine, 5 days; adult mice", "procedure": "To determine the effect of in vivo cocaine exposure on TNFα levels in the ventral striatum, TNFα mRNA and protein levels were measured in mice given intraperitoneal injections of saline or cocaine. […] To understand the impact of TNFα on synaptic function in the NAc, AMPA/NMDA ratios were measured at glutamatergic synapses on MSNs in the NAc core. Alteration in NAc core AMPA receptors are involved in the expression of behavioral sensitization to psychostimulants (Kalives, 2009).\nMice (8-10 weeks) were perfused and their brains submerged overnight in 4% PFA, cryoprotected with 30% sucrose, and cut in 30 μm thick coronal slices using a cryostat. The sections were incubated for 4 hours with blocking solution (2% normal goat serum, 3% BSA, 0.2% Triton X-100 in PBS) before incubation overnight at 4 C with primary antibodies in blocking solution (rabbit anti-Iba1 antibody [019-19741, Wako; 1:800; RRID: AB_2566825], chicken anti-GFAP antibody [AB5541, Millipore; 1:500; RRID: AB_177521], rabbit anti-NeuN [ab104225, Abcam, 1:400; RRID: AB_10711153], and rabbit anti-TNFα antibody [ab6671, Abcam, 1:100; RRID: AB_305641] or mouse anti-TNFα antibody [ab1793, Abcam, 1:100; RRID: AB_302615]). Sections were washed (2×15 min with PBST [0.05% Tween20] and 1×15 min with PBS at RT) and incubated for 2 hrs at room temperature in secondary antibodies (anti-rabbit, anti-chicken, or anti-mouse IgG-conjugated Alexa Fluorochrome [Invitrogen; 1:400]). Sections were washed and briefly (<30 seconds) incubated with Hoechst 33342 [H1399, Molecular Probes; 1:10,000] in PBS. The stained sections were imaged using an Olympus FluoView FV1000 confocal microscope with Fluoview imaging software (FV10-ASW). Images of the ventral striatum (nucleus accumbens core and shell) were acquired with a 40× or 60× objective and stacks of 25-30 optical sections (1 μm per section) of depth were Z-projected into a single window and analysed using ImageJ software (NIH).\nThe number of Iba1+ microglia were manually counted from 212×212 μm (60× objectives) or 317×317 μm (40× objectives) images. TNFα intensity was measured using the mean grey value of the entire image while Iba1 intensity measurements were obtained using a thresholded area to highlight only the microglia. Cell body area (μm^2) was measured based on Iba1 staining and using the freehand selection tool. Additional analysis of microglia morphology in saline and cocaine treated mice was done using IMARIS software (Bitplane). […] The following parameters were analyzed for 40 microglia per group: total process length (sum of length of all processes), total process volume, process diameter and number of branch points and terminals. […]\nAfter 40 cycles, the Ct values were determined."}, "[3]": {"tested_on": "primary rat microglia cultures", "assay": "TNFα mRNA in primary rat microglia cultures", "format": "cell-based", "conditions": "agonist 1 μm, 3 h", "procedure": "For tissue, total RNA from the ventral striatum was extracted and isolated by RNAqueous-4PCR total RNA isolation kit (Ambion, AM1914), according to manufacturer's instructions. For microglia and astrocyte cultures, total RNA was isolated by RNeasy kit (Qiagen, 74136). For all sample types, 0.5 μg of total RNA was used for cDNA synthesis with Quantitect Reverse Transcription Kit (Qiagen, 205313), and quantitative RT-PCR was performed with Fast SYBR-Green Master Mix (Applied Biosystems) detected by StepOne Plus RealTime PCR system (Applied Biosystems). The sequences of qPCR primers used for mRNA quantification in this study were obtained from Integrated DNA Technologies, and are as follows: mouse TNFα forward, […] (SEQ ID NO: 1) [200 nM]; mouse TNFα reverse, […] (SEQ ID NO: 2) [200 nM]; mouse GAPDH forward, […] (SEQ ID NO: 3) [300 nM]; mouse GAPDH reverse, […] (SEQ ID NO: 4) [300 nM]; rat TNFα forward, […] (SEQ ID NO: 1) [600 nM]; rat TNFα reverse, […] (SEQ ID NO: 5) [600 nM]; rat cyclophilin forward, […] (SEQ ID NO: 6) [500 nM]; rat cyclophilin reverse, […] (SEQ ID NO: 7) [500 nM]. After 40 cycles, the Ct values were determined. To normalize the samples, ΔCt between TNFα and GADPH or cyclophilin Ct values was calculated. The x-fold difference in expression between the different treatments was then determined by subtraction of the ΔCt values and termed ΔΔCt. Finally, the total change was calculated as 2-ΔΔct and the relative amount compared with control samples was deducted.\nMixed microglia-astrocyte primary cultures were prepared from the striatum of postnatal rats (day 0), essentially as described (Beattie et al., 2002). Briefly, tissue was dissociated by […], and cells were seeded in glia media (MEM containing 5% FBS, 1.5% high sucrose MEM and 0.1% glutamax) on culture flasks (Corning) coated with poly-D lysine (Sigma) and placed in a humidified incubator at 37 C with 5% CO2. Neurons were removed by mechanical disruption and the medium was changed at day 1, and every 5-7 days after. […]"}, "[4]": {"tested_on": "D2-MSNs in the NAc core", "assay": "AMPA/NMDA ratio, acute NAc slices treated ex-vivo with TNFα, D2-MSNs", "format": "cell-based, mouse", "conditions": "for mean AMPA/NMDA ratio, D2 MSNs: NAc core", "procedure": "(§2) It has been previously shown that TNFα drives internalization of AMPARs on MSNs in the dorsal striatum (Lewitus et al., 2014). As repeated cocaine administration primarily affects direct-pathway MSNs, specific subpopulations of MSNs in the NAc core were tested for their response to TNFα. Acute NAc slices were incubated with TNFα (10 ng/ml or 100 ng/ml) and whole-cell recording were made for Drd1a-td Tomato (D1) positive and negative (D2) MSNs. […] A low dose of TNFα (10 ng/ml) had no significant effect on either cell type.\nas §1\n. […] Synaptic currents were evoked using stainless-steel bipolar stimulating electrodes placed 100-150 μm rostral to the recorded neurons. […]"}, "[5]": {"tested_on": "D1-MSNs in the NAc core", "assay": "AMPA/NMDA ratio, acute NAc slices treated ex-vivo with TNFα, D1-MSNs", "format": "cell-based, mouse", "conditions": "for mean AMPA/NMDA ratio, D1 MSNs: NAc core", "procedure": "as §2, §1\n. After a 1 h recovery period, slices were placed in a submersion-type recording chamber and perfused (1.5-2 ml/min) at 30° C. with a bicarbonate-buffered artificial CSF saturated with 95% O2/5% CO2 and containing (in mM): 119 NaCl, 2.5 KCl, 1 NaH2PO4, 1.3 MgCl2, 2.5 CaCl2, 26.2 NaHCO3, 11 glucose, and 0.05 picrotoxin. Whole-cell voltage-clamp recordings from medium spiny neurons in the nucleus accumbens core were obtained under visual control using infrared-differential interference contrast microscopy. Whole-cell electrodes (2-4 MΩ) were filled with internal solution containing the following (in mM): 120 CsMeSO3, 15 CsCl, 8 NaCl, 0.2 EGTA, 10 HEPES, 2 Mg-ATP, 0.3 Na-GTP, 10 tetraethylammonium, and 5 QX-314 [5-N-(2,6-dimethylphenylcarbamoylmethyl)triethylammonium bromide] (308-310 mOsm). pH was adjusted to 7.3 with CsOH. Cells with series resistance above 25 MΩ or a 20% change over time were excluded. Synaptic currents were evoked using stainless-steel bipolar stimulating electrodes placed 100-150 μm rostral to the recorded neurons. […]"}}, "note": "Where a name gives a salt, the structure may show the parent alone.", "data": [{"compound": "OC1(c2ccc(Cl)cc2)CCN(Cc2c[nH]c3ccccc23)CC1", "note": "[L741,626]", "values": [{"measurement": "AMPA/NMDA ratio on D1-MSNs vs cocaine alone", "setting": "[1]", "value": "increase"}, {"measurement": "TNFα mRNA in ventral striatum tissue", "setting": "[2]", "value": "significantly decreases"}]}, {"compound": "Oc1cc2c(cc1O)C(c1ccccc1)CNCC2", "note": "(centres unmarked) [SKF-38393]", "values": [{"measurement": "change in TNFα mRNA in primary rat microglia cultures", "setting": "[3]", "value": "had no effect"}]}, {"compound": "CCCN[C@H]1CCc2nc(N)sc2C1", "note": "[pramipexole, pramipexole dihydrochloride]", "values": [{"measurement": "change in TNFα mRNA in primary rat microglia cultures", "setting": "[3]", "value": "did not affect"}]}, {"compound": "Tumor necrosis factor alpha [TNFα]", "values": [{"measurement": "effect on AMPA/NMDA ratios in D2-MSNs", "setting": "[4]; TNFα-KO mice, cocaine 24 hours prior, 10 ng/ml TNFα ex-vivo", "value": "had no effect"}, {"measurement": "mean AMPA/NMDA ratio, D2 MSNs", "setting": "[4]; slices treated with 10 ng/ml TNFα (printed D2(10 ug TNF))", "value": "2.78±0.34"}, {"measurement": "mean AMPA/NMDA ratio, D2 MSNs", "setting": "[4]; slices treated with 100 ng/ml TNFα (printed D2(100 ug TNF))", "value": "2.02±0.18"}, {"measurement": "mean AMPA/NMDA ratio, D1-MSNs", "setting": "[5]; TNFα−/− mice treated 24 hours prior with cocaine, 10 ng/ml TNFα ex-vivo", "value": "3.08±0.42"}, {"measurement": "mean AMPA/NMDA ratio, D1 MSNs", "setting": "[5]; slices treated with 10 ng/ml TNFα (printed D1(10 ug TNF))", "value": "3.1±0.52"}, {"measurement": "mean AMPA/NMDA ratio, D1 MSNs", "setting": "[5]; slices treated with 100 ng/ml TNFα (printed D1(100 ug TNF))", "value": "2.42±0.23"}, {"measurement": "mean AMPA/NMDA ratio, D1-MSNs", "setting": "[5]; wildtype mice after 5 daily cocaine injections, 100 ng/ml TNFα ex-vivo", "value": "4.06±0.46"}]}]}
